The record followed here is ChEMBL document CHEMBL3867471, “Identification of lead small molecule inhibitors of glycogen synthase kinase-3 beta using a fragment-linking strategy” (Bioorg Med Chem Lett, 2016).

The target of this assay is Glycogen synthase kinase-3 beta (Homo sapiens, UniProt P49841). The assay is described as follows: Inhibition of human GSK3beta using YRRAAVPPSPSLSRHSSPHQ(pS)EDEEE as substrate in presence of gamma-33P-ATP.
Sequence of Glycogen synthase kinase-3 beta (P49841 whole entry): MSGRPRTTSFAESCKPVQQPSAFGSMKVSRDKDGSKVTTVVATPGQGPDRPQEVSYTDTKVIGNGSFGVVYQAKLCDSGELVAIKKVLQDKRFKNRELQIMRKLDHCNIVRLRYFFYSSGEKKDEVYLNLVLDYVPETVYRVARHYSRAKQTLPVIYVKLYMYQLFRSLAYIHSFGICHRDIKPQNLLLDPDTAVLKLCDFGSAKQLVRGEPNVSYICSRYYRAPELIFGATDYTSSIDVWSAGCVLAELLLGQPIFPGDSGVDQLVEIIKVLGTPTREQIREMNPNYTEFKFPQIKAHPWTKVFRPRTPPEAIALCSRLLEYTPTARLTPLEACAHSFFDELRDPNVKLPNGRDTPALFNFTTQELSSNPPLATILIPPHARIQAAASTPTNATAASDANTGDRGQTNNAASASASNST
As usually defined, the IC50 is the concentration at which inhibition is half-maximal. In the case of `O=C(/C=C/c1cnc2[nH]cc(-c3ccccc3)c2c1)N[C@@H](CO)Cc1ccccc1`, the IC50 was 752 nM.

Consider `O=C(CNC(=O)c1ccc2[nH]cc(-c3ccccc3)c2c1)NCCc1c[nH]c2ccccc12`, for which the IC50 was > 50000 nM.

For the molecule `O=C(CNC(=O)c1cnc2[nH]c(-c3ccccc3)cc2c1)NCCc1c[nH]c2ccccc12`, the IC50 was > 50000 nM.

Take `O=C(/C=C/c1cnc2[nH]cc(-c3ccccc3)c2c1)NCCc1cccnc1`: the IC50 turned out to be 32 nM.

Take `C[C@@H](NC(=O)/C=C/c1cnc2[nH]cc(-c3ccccc3)c2c1)[C@@H](O)c1ccccc1`: the IC50 is 180 nM.

As to `O=C(/C=C/c1cnc2[nH]cc(-c3ccccc3)c2c1)NCCc1ccccn1`, the IC50 worked out at 19 nM.

Regarding `O=C(CNC(=O)c1cnc2[nH]ccc2c1)NCCc1c[nH]c2ccccc12`, the IC50 is > 50000 nM.

In the case of `O=C(/C=C/c1cnc2[nH]cc(-c3ccccc3)c2c1)NCCc1c[nH]cn1`, the IC50 is 49 nM.

In the case of `O=C(CNC(=O)c1cnc2[nH]cc(C(=O)c3ccccc3)c2c1)NCCc1c[nH]c2ccccc12`, the IC50 worked out at 15700 nM.

For the molecule `O=C(CNC(=O)c1cnc2[nH]cc(-c3ccccc3)c2c1)NCCc1c[nH]cn1`, the IC50 came to 2610 nM.
